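Method: 48-hour compound exposure of cells in 96-well plates, five concentrations, linear interpolation of endpoints. The concentration for 50% growth inhibition is given as GI50.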 The source made the active and inactive calls. Rule as the data show it: active = GI50 up to about 1.1 µM and inactive = higher. Peptide text beside a SMILES is read from it. * marks the point of attachment. OSu = O=C1CCC(=O)N1O*
How the values were obtained:
Assay in all cases: growth of human tumour cells (NCI), 48 h
SNB-75 = system: SNB-75
OVCAR-5 = system: OVCAR-5
COLO 205 = system: COLO 205
MDA-MB-435 = system: MDA-MB-435
UO-31 = system: UO-31
CCRF-CEM = system: CCRF-CEM
A498 = system: A498
Malme-3M = system: Malme-3M
KM12 = system: KM12
MOLT-4 = system: MOLT-4
EKVX = system: EKVX
NCI-H23 = system: NCI-H23
HCT-15 = system: HCT-15
Hs-578T = system: Hs-578T
IGROV-1 = system: IGROV-1
UACC-62 = system: UACC-62
RPMI-8226 = system: RPMI-8226
HOP-62 = system: HOP-62
SF-539 = system: SF-539
DU-145 = system: DU-145
786-0 = system: 786-0
UACC-257 = system: UACC-257
OVCAR-4 = system: OVCAR-4
HL-60 = system: HL-60
TK-10 = system: TK-10
SK-MEL-5 = system: SK-MEL-5
CAKI-1 = system: CAKI-1
SR = system: SR
OVCAR-8 = system: OVCAR-8
SF-295 = system: SF-295
MDA-MB-231 = system: MDA-MB-231
LOX IMVI = system: LOX IMVI
PC-3 = system: PC-3
M14 = system: M14
MCF7 = system: MCF7
SK-OV-3 = system: SK-OV-3
SW-620 = system: SW-620
T47D = system: T47D
K562 = system: K562
NCI/ADR-RES = system: NCI/ADR-RES
HOP-92 = system: HOP-92
NCI-H460 = system: NCI-H460
A549 = system: A549
ACHN = system: ACHN
SNB-19 = system: SNB-19
NCI-H522 = system: NCI-H522
U-251 = system: U-251
HCT-116 = system: HCT-116
SN12C = system: SN12C
BT-549 = system: BT-549
SK-MEL-2 = system: SK-MEL-2
OVCAR-3 = system: OVCAR-3
RXF 393 = system: RXF 393
NCI-H226 = system: NCI-H226
SF-268 = system: SF-268
MDA-N = system: MDA-N
HCC 2998 = system: HCC 2998
SK-MEL-28 = system: SK-MEL-28
HT-29 = system: HT-29

## CCN(CC)CCCC(C)Nc1ccnc2cc3ccccc3cc12 (stereo unspecified)
SNB-75
  GI50: 6.95 µM (inactive)
OVCAR-5
  GI50: 21.7 µM (inactive)
COLO 205
  GI50: 3.3 µM (inactive)
MDA-MB-435
  GI50: 7.85 µM (inactive)
UO-31
  GI50: 6.32 µM (inactive)
CCRF-CEM
  GI50: > 100 µM (inactive)
A498
  GI50: 22.6 µM (inactive)
Malme-3M
  GI50: 19.7 µM (inactive)
KM12
  GI50: 4.95 µM (inactive)
MOLT-4
  GI50: 4.09 µM (inactive)
EKVX
  GI50: 32.2 µM (inactive)
NCI-H23
  GI50: 14.3 µM (inactive)
HCT-15
  GI50: 3.23 µM
Hs-578T
  GI50: 36.5 µM (inactive)
IGROV-1
  GI50: 4.43 µM (inactive)
UACC-62
  GI50: 17.2 µM (inactive)
RPMI-8226
  GI50: 13.5 µM (inactive)
HOP-62
  GI50: 12.4 µM (inactive)
SF-539
  GI50: 22.8 µM (inactive)
DU-145
  GI50: > 100 µM (inactive)
786-0
  GI50: 8.41 µM (inactive)
UACC-257
  GI50: 23.8 µM (inactive)
OVCAR-4
  GI50: 3.24 µM (inactive)
HL-60
  GI50: 10.7 µM (inactive)
TK-10
  GI50: 10.2 µM (inactive)
SK-MEL-5
  GI50: 19.8 µM (inactive)
CAKI-1
  GI50: 9.2 µM (inactive)
SR
  GI50: 3.75 µM (inactive)
OVCAR-8
  GI50: 7.23 µM (inactive)
SF-295
  GI50: 5.82 µM (inactive)
MDA-MB-231
  GI50: 8.57 µM (inactive)
LOX IMVI
  GI50: 4.91 µM (inactive)
PC-3
  GI50: 12.9 µM (inactive)
M14
  GI50: 14.6 µM (inactive)
MCF7
  GI50: 5.35 µM (inactive)
SK-OV-3
  GI50: 8.05 µM (inactive)
SW-620
  GI50: 6.19 µM (inactive)
T47D
  GI50: 12.8 µM (inactive)
K562
  GI50: 7 µM (inactive)
NCI/ADR-RES
  GI50: 10.1 µM (inactive)
HOP-92
  GI50: 12.3 µM (inactive)
NCI-H460
  GI50: 3.57 µM (inactive)
A549
  GI50: 7.03 µM (inactive)
ACHN
  GI50: 3.72 µM (inactive)
SNB-19
  GI50: 7.53 µM (inactive)
NCI-H522
  GI50: 10.4 µM (inactive)
U-251
  GI50: 5.75 µM (inactive)
HCT-116
  GI50: 5.75 µM (inactive)
SN12C
  GI50: 14.2 µM (inactive)
BT-549
  GI50: 8.59 µM (inactive)
SK-MEL-2
  GI50: 23.9 µM (inactive)
OVCAR-3
  GI50: 6.05 µM (inactive)
RXF 393
  GI50: 9.53 µM (inactive)
NCI-H226
  GI50: 20.9 µM (inactive)
SF-268
  GI50: 4.86 µM (inactive)

## CC(C)c1ccccc1SC1CC(=O)CC(Sc2ccccc2C(C)C)C12O[C@H](c1ccccc1)[C@@H](c1ccccc1)O2 (stereo partly specified)
OVCAR-5
  GI50: > 100 µM (inactive)
COLO 205
  GI50: 71.6 µM (inactive)
MDA-MB-435
  GI50: 22.6 µM (inactive)
MDA-N
  GI50: 20.9 µM (inactive)
CCRF-CEM
  GI50: 13.4 µM (inactive)
A498
  GI50: > 100 µM (inactive)
KM12
  GI50: 59.6 µM (inactive)
MOLT-4
  GI50: 23.4 µM (inactive)
EKVX
  GI50: > 100 µM (inactive)
NCI-H23
  GI50: 36.8 µM (inactive)
HCT-15
  GI50: 31.7 µM
IGROV-1
  GI50: 34.1 µM (inactive)
UACC-62
  GI50: 28.4 µM (inactive)
RPMI-8226
  GI50: 17.3 µM (inactive)
HOP-62
  GI50: > 100 µM (inactive)
HCC 2998
  GI50: 36 µM (inactive)
SF-539
  GI50: 57.1 µM (inactive)
DU-145
  GI50: 76.2 µM (inactive)
786-0
  GI50: 18.1 µM (inactive)
SK-MEL-28
  GI50: 38.5 µM (inactive)
UACC-257
  GI50: > 100 µM (inactive)
OVCAR-4
  GI50: 61.9 µM (inactive)
HL-60
  GI50: 12.3 µM (inactive)
TK-10
  GI50: 85.9 µM (inactive)
SK-MEL-5
  GI50: 35.6 µM (inactive)
CAKI-1
  GI50: 26.3 µM (inactive)
OVCAR-8
  GI50: 35.4 µM (inactive)
SF-295
  GI50: > 100 µM (inactive)
MDA-MB-231
  GI50: 34.8 µM (inactive)
LOX IMVI
  GI50: 30.1 µM (inactive)
PC-3
  GI50: 58.9 µM (inactive)
M14
  GI50: 21.5 µM (inactive)
MCF7
  GI50: 34 µM (inactive)
SK-OV-3
  GI50: > 100 µM (inactive)
SW-620
  GI50: 39.2 µM (inactive)
HT-29
  GI50: 58.5 µM (inactive)
T47D
  GI50: 28.6 µM (inactive)
NCI/ADR-RES
  GI50: 47 µM (inactive)
HOP-92
  GI50: 95.9 µM (inactive)
NCI-H460
  GI50: > 100 µM (inactive)
A549
  GI50: > 100 µM (inactive)
ACHN
  GI50: 30.3 µM (inactive)
SNB-19
  GI50: > 100 µM (inactive)
U-251
  GI50: 20.3 µM (inactive)
HCT-116
  GI50: 32.7 µM (inactive)
SN12C
  GI50: 22.6 µM (inactive)
BT-549
  GI50: 51.1 µM (inactive)
SK-MEL-2
  GI50: 35.6 µM (inactive)
OVCAR-3
  GI50: 32.2 µM (inactive)
RXF 393
  GI50: 19.9 µM (inactive)

## NCCCCC(NC(=O)C(N)Cc1ccc(O)cc1)C(=O)NC(CCCCN)C(=O)NC(CCCCN)C(=O)ON1C(=O)CCC1=O (stereo unspecified) (H-YKKK-OSu; configuration not given here)
SNB-75
  GI50: > 100 µM (inactive)
OVCAR-5
  GI50: > 100 µM (inactive)
COLO 205
  GI50: > 100 µM (inactive)
MDA-N
  GI50: > 100 µM (inactive)
UO-31
  GI50: > 100 µM (inactive)
A498
  GI50: > 100 µM (inactive)
Malme-3M
  GI50: > 100 µM (inactive)
KM12
  GI50: > 100 µM (inactive)
MOLT-4
  GI50: > 100 µM (inactive)
EKVX
  GI50: > 100 µM (inactive)
NCI-H23
  GI50: > 100 µM (inactive)
HCT-15
  GI50: > 100 µM
Hs-578T
  GI50: > 100 µM (inactive)
IGROV-1
  GI50: > 100 µM (inactive)
UACC-62
  GI50: > 100 µM (inactive)
RPMI-8226
  GI50: > 100 µM (inactive)
HOP-62
  GI50: > 100 µM (inactive)
HCC 2998
  GI50: > 100 µM (inactive)
786-0
  GI50: > 100 µM (inactive)
SK-MEL-28
  GI50: > 100 µM (inactive)
UACC-257
  GI50: > 100 µM (inactive)
HL-60
  GI50: > 100 µM (inactive)
TK-10
  GI50: > 100 µM (inactive)
SK-MEL-5
  GI50: > 100 µM (inactive)
SR
  GI50: > 100 µM (inactive)
OVCAR-8
  GI50: > 100 µM (inactive)
MDA-MB-231
  GI50: > 100 µM (inactive)
PC-3
  GI50: > 100 µM (inactive)
M14
  GI50: > 100 µM (inactive)
MCF7
  GI50: > 100 µM (inactive)
SW-620
  GI50: > 100 µM (inactive)
HT-29
  GI50: > 100 µM (inactive)
T47D
  GI50: 49.5 µM (inactive)
K562
  GI50: > 100 µM (inactive)
HOP-92
  GI50: > 100 µM (inactive)
NCI-H460
  GI50: > 100 µM (inactive)
A549
  GI50: > 100 µM (inactive)
ACHN
  GI50: > 100 µM (inactive)
SNB-19
  GI50: > 100 µM (inactive)
U-251
  GI50: > 100 µM (inactive)
HCT-116
  GI50: > 100 µM (inactive)
SN12C
  GI50: > 100 µM (inactive)
BT-549
  GI50: > 100 µM (inactive)
SK-MEL-2
  GI50: > 100 µM (inactive)
RXF 393
  GI50: > 100 µM (inactive)
NCI-H226
  GI50: > 100 µM (inactive)
